In article PMC5484146 (Journal of the American Chemical Society, 2016):

What was measured:
[1] = TEM / optical observation of assemblies and aggregates; format: physicochemical
Hydrogelation test = format: physicochemical; conditions: 4 mM solution of 1, pH changed to pH 6.4, Figure S2
[2] = 1 (800 µM), peaks disappear at 4.0 wt% Tw-80

For `CN[C@H](CC(C)C)C(=O)N[C@H]1C(=O)N[C@@H](CC(N)=O)C(=O)N[C@H]2C(=O)N[C@H]3C(=O)N[C@H](C(=O)N[C@H](C(=O)O)c4cc(O)cc(O)c4-c4cc3ccc4O)[C@H](O)c3ccc(c(Cl)c3)Oc3cc2cc(c3O)Oc2ccc(cc2Cl)[C@H]1O` [vancomycin aglycon, reference compound], the “aggregate formation in EISA of 1P when it replaces 2” value ([1]; TEM, Figure S20, short fibers were observed) was “no aggregates were observed”.
For Nap-FFYGGaa [compound 1], the “appearance after addition of five equivalents of 2” value ([1]; 500 µM suspension of 1, 24–48h after the addition, Figure S5) was “opaque colloidal precipitate”, the “morphology on direct addition in water” value ([1]; 1 500 µM, pH 7.4, TEM) was “suspension consisting of nanoribbons” and the “binding with 2 by ITC, in words” value (ITC in PBS, no surfactant, 1 and 3 as assemblies) was “too weak to be measured by ITC”. For the same compound, the “ITC heating profile on titration with 2, in words” value (ITC, 1.0 wt% of Tw-80, Figure 2C) was “release of heat”, the hydrogel formation (Hydrogelation test) was “self-supporting gel” and the “size of the assemblies (DLS peaks)” value [2] was > 100 nm.
For Nap-FFpYGGaa [1P], the “appearance after addition of one equivalent of 2, without ALP” value ([1]; 1P 500 µM, 1 eq. 2, pH 7.4, TEM aggregates largely unstructured) was “colloidal suspension”, the “morphology after simultaneous addition of 2 and ALP” value ([1]; 1P 500 µM, 2 (1 eq.), ALP 1.25 U/mL, pH 7.4, TEM, precipitates over time) was “large aggregates” and the “morphology after ALP dephosphorylation in the absence of 2” value ([1]; 1P 500 µM, ALP 1.25 U/mL, pH 7.4, TEM) was “long nanofibers”.
